Results as given in US10150760B2, “Compounds for use in preparing heterocyclic triazole agonists of the APJ receptor” (AMGEN INC., priority 2016, dated 2018).

Biological target: human APJ receptor (Homo sapiens (Human), UniProt P35414)
Assay: [35S]GTPγS binding assay on membranes from CHO cells stably expressing human APJ receptor
Format: biochemical
Details: read-out: Activity hAPJ SPA EC50 IP
Summary of the method: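 Agonist-driven [35S]GTPγS (0.2 nM) binding was measured over 90 min at room temperature on human APJ-expressing CHO membranes with bead capture, in buffer containing 3 μM GDP, 200 mM NaCl and 5 mM MgCl2 (pH 7.5). Excess unlabelled GTPγS (100 μM) gave nonspecific signal; EC50 from non-linear fits.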

human APJ receptor, sequence (P35414 whole entry): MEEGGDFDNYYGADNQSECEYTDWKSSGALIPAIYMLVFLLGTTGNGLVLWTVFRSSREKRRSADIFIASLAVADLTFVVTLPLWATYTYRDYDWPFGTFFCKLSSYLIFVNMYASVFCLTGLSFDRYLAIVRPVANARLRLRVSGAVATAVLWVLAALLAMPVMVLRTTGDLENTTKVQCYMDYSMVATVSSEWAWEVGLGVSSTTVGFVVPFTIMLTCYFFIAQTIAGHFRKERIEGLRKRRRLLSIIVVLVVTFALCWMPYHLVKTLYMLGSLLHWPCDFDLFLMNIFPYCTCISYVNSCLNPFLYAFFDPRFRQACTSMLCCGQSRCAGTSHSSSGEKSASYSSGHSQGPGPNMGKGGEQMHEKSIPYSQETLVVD

**Q.** With COCCn1c(NS(=O)(=O)[C@@H](C)[C@H](OC)c2ncc(Cl)cn2)nnc1[C@@H]1COCCO1 (single isomer, unassigned) [Example 312.0, (1R,2S)-N-(5-((R)-1,4-dioxan-2-yl)-4-(2-methoxyethyl)-4H-1,2,4-triazol-3-yl)-1-(5-chloropyrimidin-2-yl)-1-methoxypropane-2-sulfonamide or (1R,2S)-N-(5-((S)-1,4-dioxan-2-yl)-4-(2-methoxyethyl)-4H-1,2,4-triazol-3-yl)-1-(5-chloropyrimidin-2-yl)-1-methoxypropane-2-sulfonamide] as the compound, how does the EC50 read?
**A.** 1900 nM

**Q.** How did the EC50 turn out when COc1cccc(OC)c1-n1c(NS(=O)(=O)[C@@H](C)[C@H](C)c2ncc(F)cn2)nnc1[C@H]1CCC(C)(C)O1 (single isomer, unassigned) [Example 333.0, (2S,3R)-N-(4-(2,6-dimethoxyphenyl)-5-((R)-5,5-dimethyltetrahydrofuran-2-yl)-4H-1,2,4-triazol-3-yl)-3-(5-fluoropyrimidin-2-yl)butane-2-sulfonamide or (2S,3R)-N-(4-(2,6-dimethoxyphenyl)-5-((S)-5,5-dimethyltetrahydrofuran-2-yl)-4H-1,2,4-triazol-3-yl)-3-(5-fluoropyrimidin-2-yl)butane-2-sulfonamide] was run?
**A.** 190 nM

**Q.** COc1cccc(OC)c1-n1c(NS(=O)(=O)[C@@H](C)[C@H](C)c2ncc(F)cn2)nnc1[C@H]1CCC(C)(C)O1 (single isomer, unassigned) [Example 334.0, (2S,3R)-N-(4-(2,6-dimethoxyphenyl)-5-((R)-5,5-dimethyltetrahydrofuran-2-yl)-4H-1,2,4-triazol-3-yl)-3-(5-fluoropyrimidin-2-yl)butane-2-sulfonamide or (2S,3R)-N-(4-(2,6-dimethoxyphenyl)-5-((S)-5,5-dimethyltetrahydrofuran-2-yl)-4H-1,2,4-triazol-3-yl)-3-(5-fluoropyrimidin-2-yl)butane-2-sulfonamide] was tested. Which EC50 did it give?
**A.** 2.5 nM

**Q.** With CCC(CC)n1c(NS(=O)(=O)[C@@H](C)[C@H](OC)c2ncc(Cl)cn2)nnc1[C@@H]1COCCO1 (single isomer, unassigned) [Example 335.0, (1R,2S)-1-(5-chloro-2-pyrimidinyl)-N-(5-((2R)-1,4-dioxan-2-yl)-4-(3-pentanyl)-4H-1,2,4-triazol-3-yl)-1-methoxy-2-propanesulfonamide or (1R,2S)-1-(5-chloro-2-pyrimidinyl)-N-(5-((2S)-1,4-dioxan-2-yl)-4-(3-pentanyl)-4H-1,2,4-triazol-3-yl)-1-methoxy-2-propanesulfonamide] as the compound, how does the EC50 read?
**A.** 38 nM

**Q.** With CCC(CC)n1c(NS(=O)(=O)[C@@H](C)[C@H](OC)c2ncc(Cl)cn2)nnc1[C@@H]1COCCO1 (single isomer, unassigned) [Example 336.0, (1R,2S)-1-(5-chloro-2-pyrimidinyl)-N-(5-((2R)-1,4-dioxan-2-yl)-4-(3-pentanyl)-4H-1,2,4-triazol-3-yl)-1-methoxy-2-propanesulfonamide or (1R,2S)-1-(5-chloro-2-pyrimidinyl)-N-(5-((2S)-1,4-dioxan-2-yl)-4-(3-pentanyl)-4H-1,2,4-triazol-3-yl)-1-methoxy-2-propanesulfonamide] as the compound, how does the EC50 read?
**A.** 1400 nM

**Q.** For CO[C@H](c1ncc(Cl)cn1)[C@H](C)S(=O)(=O)Nc1nnc([C@@H]2COCCO2)n1C(C1CC1)C1CC1 (single isomer, unassigned) [Example 337.0, (1R,2S)-1-(5-chloro-2-pyrimidinyl)-N-(4-(dicyclopropylmethyl)-5-((2R)-1,4-dioxan-2-yl)-4H-1,2,4-triazol-3-yl)-1-methoxy-2-propanesulfonamide or (1R,2S)-1-(5-chloro-2-pyrimidinyl)-N-(4-(dicyclopropylmethyl)-5-((2S)-1,4-dioxan-2-yl)-4H-1,2,4-triazol-3-yl)-1-methoxy-2-propanesulfonamide], which EC50 is on record?
**A.** 6.9 nM

**Q.** Which EC50 does the source give for CO[C@H](c1ncc(Cl)cn1)[C@H](C)S(=O)(=O)Nc1nnc([C@@H]2COCCO2)n1C(C1CC1)C1CC1 (single isomer, unassigned) [Example 338.0, (1R,2S)-1-(5-chloro-2-pyrimidinyl)-N-(4-(dicyclopropylmethyl)-5-((2R)-1,4-dioxan-2-yl)-4H-1,2,4-triazol-3-yl)-1-methoxy-2-propanesulfonamide or (1R,2S)-1-(5-chloro-2-pyrimidinyl)-N-(4-(dicyclopropylmethyl)-5-((2S)-1,4-dioxan-2-yl)-4H-1,2,4-triazol-3-yl)-1-methoxy-2-propanesulfonamide] here?
**A.** 110 nM

**Q.** For COCC1(n2c(NS(=O)(=O)[C@@H](C)[C@H](OC)c3ncc(Cl)cn3)nnc2[C@H]2CCOC2)CC1 (single isomer, unassigned) [Example 339.0, (1R,2S)-1-(5-chloro-2-pyrimidinyl)-1-methoxy-N-(4-(1-(methoxymethyl)cyclopropyl)-5-((3R)-tetrahydro-3-furanyl)-4H-1,2,4-triazol-3-yl)-2-propanesulfonamide or (1R,2S)-1-(5-chloro-2-pyrimidinyl)-1-methoxy-N-(4-(1-(methoxymethyl)cyclopropyl)-5-((3S)-tetrahydro-3-furanyl)-4H-1,2,4-triazol-3-yl)-2-propanesulfonamide], which EC50 is on record?
**A.** 1440 nM

**Q.** For COCC1(n2c(NS(=O)(=O)[C@@H](C)[C@H](OC)c3ncc(Cl)cn3)nnc2[C@H]2CCOC2)CC1 (single isomer, unassigned) [Example 340.0, (1R,2S)-1-(5-chloro-2-pyrimidinyl)-1-methoxy-N-(4-(1-(methoxymethyl)cyclopropyl)-5-((3R)-tetrahydro-3-furanyl)-4H-1,2,4-triazol-3-yl)-2-propanesulfonamide or (1R,2S)-1-(5-chloro-2-pyrimidinyl)-1-methoxy-N-(4-(1-(methoxymethyl)cyclopropyl)-5-((3S)-tetrahydro-3-furanyl)-4H-1,2,4-triazol-3-yl)-2-propanesulfonamide], which EC50 is on record?
**A.** 150 nM

**Q.** For COCC1(n2c(NS(=O)(=O)[C@@H](C)[C@H](OC)c3ncc(Cl)cn3)nnc2[C@H]2COCCO2)CC1 (single isomer, unassigned) [Example 342.0, (1R,2S)-N-(5-((S)-1,4-dioxan-2-yl)-4-(1-(methoxymethyl)cyclopropyl)-4H-1,2,4-triazol-3-yl)-1-(5-chloropyrimidin-2-yl)-1-methoxypropane-2-sulfonamide or (1R,2S)-N-(5-((R)-1,4-dioxan-2-yl)-4-(1-(methoxymethyl)cyclopropyl)-4H-1,2,4-triazol-3-yl)-1-(5-chloropyrimidin-2-yl)-1-methoxypropane-2-sulfonamide], which EC50 is on record?
**A.** 100 nM

**Q.** Which EC50 does the source give for COc1cccc(OC)c1-n1c(NS(=O)(=O)[C@@H](C)[C@H](C)c2ncc(Cl)cn2)nnc1[C@H]1CCC(=O)N1 (single isomer, unassigned) [Example 343.0, (2S,3R)-3-(5-chloropyrimidin-2-yl)-N-(4-(2,6-dimethoxyphenyl)-5-((R)-5-oxopyrrolidin-2-yl)-4H-1,2,4-triazol-3-yl)butane-2-sulfonamide or (2S,3R)-3-(5-chloropyrimidin-2-yl)-N-(4-(2,6-dimethoxyphenyl)-5-((S)-5-oxopyrrolidin-2-yl)-4H-1,2,4-triazol-3-yl)butane-2-sulfonamide] here?
**A.** 730 nM
